Conditions: Liquid, Ebulliometric method (Recirculating still)

COCC(CO)OC (stereo not given) [2,3-dimethoxy-1-propanol]
Conditions	vapor or sublimation pressure [kPa]
337.95 K	3.2
368.95 K	7.84
398.1 K	19.27
408.55 K	27.33
413.05 K	32.46
419.7 K	38.8
423.55 K	45.86
431.55 K	59.8
433.15 K	65.6
434.85 K	70.66
437.35 K	76.53
439.75 K	83.33
441.65 K	87.26
444.45 K	95.73
446.65 K	100.79
